Data reported in BindingDB's records for doi:10.1016/j.bmcl.2015.11.049 (Genomics Institute of The Novartis Research Foundation, 2016).

How the values were obtained:
[1] = Inhibition of […] (unknown origin) expressed in mouse BaF3 cells assessed as reduction in cell proliferation incubated for 2 to 3 days by Bright-Glo luciferase assay
[2] = Inhibition of […] (unknown origin) expressed in human KARPAS-299 cells assessed as reduction in cell growth
[3] = Inhibition of PDK1 (unknown origin)
[4] = Inhibition of Tel fused InsR (unknown origin) expressed in mouse BaF3 cells assessed as reduction in cell proliferation incubated for 2 to 3 days by Bright-Glo luciferase assay

Compound | IC50 [1] | IC50 [2] | IC50 [3] | IC50 [4]
Cc1cc(Nc2nc(Nc3ccccc3S(=O)(=O)C(C)C)c3cccnc3n2)c(OC(C)C)cc1C1CCNCC1 | 3170 nM | – | – | –
Cc1cc(Nc2nc(Nc3ccccc3S(=O)(=O)C(C)C)c3ccccc3n2)c(OC(C)C)cc1C1CCN(C)CC1 | 1080 nM | – | – | –
Cc1cc(Nc2cc(Nc3ccccc3S(=O)(=O)C(C)C)c3cc[nH]c3n2)c(OC(C)C)cc1C1CCN(C)CC1 | 1430 nM | 7.31 µM | – | –
Cc1cc(Nc2nc(Nc3ccccc3S(=O)(=O)C(C)C)c3c(N)n[nH]c3n2)c(OC(C)C)cc1C1CCN(C)CC1 | 150 nM | – | – | –
Cc1cc2c(Nc3ccccc3S(=O)(=O)C(C)C)nc(Nc3cc(C)c(C4CCN(C)CC4)cc3OC(C)C)nc2[nH]1 | 1300 nM | – | – | –
Cc1cc(Nc2nc(Nc3ccccc3S(=O)(=O)C(C)C)c3cn[nH]c3n2)c(OC(C)C)cc1C1CCN(C)CC1 | 13 nM | – | – | –
Cc1cc(Nc2nc(Nc3ccccc3S(=O)(=O)C(C)C)c3cn[nH]c3n2)c(OC(C)C)cc1C1CCNCC1 | 33 nM | – | – | –
Cc1cc(Nc2nc(Nc3ccccc3S(=O)(=O)C(C)C)c3cc[nH]c3n2)c(OC(C)C)cc1C1CCNCC1 | 47 nM | – | – | –
Cc1cc(Nc2nc(Nc3ccccc3S(=O)(=O)C(C)C)c3c(C)[nH]nc3n2)c(OC(C)C)cc1C1CCN(C)CC1 [US8592432, 34] | 20 nM | 0.026 µM | > 10 µM | 429 nM
